Measurements published in patent publication US8039501B2, “Synephrine derivatives useful as anti-inflammatory agents” (Universiteit Gent, priority 2005, dated 2011).

Assays:
Saos-2 = assay: Q-PCR gene expression in osteosarcoma cell-line Saos-2; assay type: cell-based, human; settings: 10 μM
Protocol: CpdA was synthesized as described previously. […] They were sacrificed and livers were isolated. […] Gene expression of HPRT was used for normalization. […] Gene expression of HPRT was used for normalization. […] Gene expression of HPRT was used for normalization. Statistical significance was determined by one way anova. […] Gene expression of HPRT was used for normalization. […] Gene expression of HPRT was used for normalization. Statistical significance was determined by one way anova. […] Statistical significance was determined with a Kruskal-Wallis test.

bfl1 gene = assay: RNase protection analysis of bfl1 gene in MCF7 cells; assay type: cell-based, human; settings: 10 μM pre-treated 2 hours, TNF, FIG. 9
Protocol: In a first specific gene expression experiment, RNAse protection analysis on the bfl1 gene, coding for BCL2-related protein A1 that has anti-apoptotic activity. FIG. 9 illustrates the results of the RNAse protection analysis. Cells were pre-treated with CpdA (10 μM) and DEX (1 μM) for 2 hours before TNF induction or non-induction for a total period of 8 hours. Total RNA was recovered (see hereunder for the total RNA extraction protocol) and an RNA protection Assay (hereinafter referred to as RPA) was performed. Transcripts were quantified by autoradiography followed by densiometry.
For the total RNA extraction, 10^5 cell were homogenized in 1 ml of TRIzol Reagent (GIBCO BRL), incubated 5 minutes at room temperature; then added 200 μl chloroform, vortexed 15 seconds. Mix was incubated on ice for 5 minutes. […]
RNase Protection Assay (Pharmingen) was used for the detection and quantitation of A1/bfl mRNA species. […] The pelleted RNA was re-suspended in 6 μl of gel loading buffer, incubated at 95° C. for 5 minutes, quickly quenched on ice and analyzed by electrophoresis on 6% polyacrylamide/8M urea gels. Visualization and quantitation of radioactive bands was carried out by a Phosphorlmager and scanned using a bioimaging analyzer (Personal Molecular Imager® FX Bio-Rad). Densitometry analysis of autoradiograms was performed using Quantity One (Bio-Rad). […]

MCF7 breast cancer cells = settings: 10^−5 M
Protocol: In further experiments, nylon arrayfilter hybridization experiments were performed. cDNA array analyses were carried out according to the instructions of the manufacturer (SuperArray Simplicity GEArray™ KIT) on the cDNA arrays cancer pathway finder and stress and toxicity array. Total RNA, obtained by the protocol as described herein above, was used as a template for [α−^33P]-cDNA probe synthesis using the following steps:
A second array hybridization experiment was performed on Human Stress and Toxicity Pathway Finder GEarray Q series. The same protocol was followed as for the array hybridization experiment on the Human Cancer Pathway Finder described herein above.

Structure (SMILES): CNCC(Cl)c1ccc(OC(C)=O)cc1.Cl (stereo not shown) [CpdA, 2-(4-acetoxyphenyl)-2-chloro-N-methyl-ethylammonium chloride]
- RANKL/OPG ratio (Saos-2; 24 hours): does not alter the RANKL/OPG ratio
- Expression of osteoclast differentiation markers M-CSF and RANKL (Saos-2; 24 hours, FIG. 15, RANKL solvent versus CpdA p>0.05): does not stimulate the expression
- Expression of OPG (Saos-2; 24 hours, FIG. 15, solvent versus CpdA p>0.05): does not down-regulate the expression of OPG
- Expression of pro-inflammatory mediators (anti-inflammatory effect) (Saos-2; TNF 2000 U/ml 6 hours, FIG. 16): anti-inflammatory effect
- Transcription of bfl1 gene (RNase protection) (bfl1 gene): inhibits transcription of the prosurvival gene A
- Gene response of CRYAB, DNAJA1, pcna, mdm2 (MCF7 breast cancer cells): increased gene response
- Levels of HSPA1A, HSPA1B, HSPA4 (=hsp70), CSF2, SCYA4 (MIP1B), ANXA5, casp10, casp8, ERCC5, TNFSF6 (FasL) (MCF7 breast cancer cells): increases levels
